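Each compound was tested at five concentrations against cells in 96-well plates for 48 hours. At the GI50, growth is halved.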 Activity calls are given as the source filed them. Cut-off read from the data, not from the text of the source: active = GI50 up to about 1.1 µM and inactive = higher. Where a SMILES comes first, the peptide text is derived from it. The star is where a group is joined. Cbz = O=C(OCc1ccccc1)*
Experiments:
Test in all cases: inhibition of tumour cell growth, NCI panel, 48 h
SW-620 = system: SW-620
UO-31 = system: UO-31
LOX IMVI = system: LOX IMVI
M14 = system: M14
SK-MEL-2 = system: SK-MEL-2
Hs-578T = system: Hs-578T
KM12 = system: KM12
HCT-116 = system: HCT-116
SF-539 = system: SF-539
Malme-3M = system: Malme-3M
HOP-62 = system: HOP-62
U-251 = system: U-251
SF-268 = system: SF-268
SK-MEL-28 = system: SK-MEL-28
CCRF-CEM = system: CCRF-CEM
MDA-N = system: MDA-N
CAKI-1 = system: CAKI-1
RXF 393 = system: RXF 393
TK-10 = system: TK-10
SN12C = system: SN12C
IGROV-1 = system: IGROV-1
PC-3 = system: PC-3
OVCAR-8 = system: OVCAR-8
786-0 = system: 786-0
A498 = system: A498
OVCAR-4 = system: OVCAR-4
DU-145 = system: DU-145
SK-OV-3 = system: SK-OV-3
OVCAR-3 = system: OVCAR-3
MDA-MB-435 = system: MDA-MB-435
UACC-257 = system: UACC-257
NCI-H23 = system: NCI-H23
HL-60 = system: HL-60
NCI-H522 = system: NCI-H522
HCT-15 = system: HCT-15
OVCAR-5 = system: OVCAR-5
MDA-MB-231 = system: MDA-MB-231
MOLT-4 = system: MOLT-4
A549 = system: A549
SK-MEL-5 = system: SK-MEL-5
EKVX = system: EKVX
COLO 205 = system: COLO 205
BT-549 = system: BT-549
RPMI-8226 = system: RPMI-8226
SF-295 = system: SF-295
UACC-62 = system: UACC-62
HT-29 = system: HT-29
ACHN = system: ACHN
SNB-19 = system: SNB-19
NCI-H226 = system: NCI-H226
MCF7 = system: MCF7
NCI/ADR-RES = system: NCI/ADR-RES
T47D = system: T47D
NCI-H460 = system: NCI-H460
HCC 2998 = system: HCC 2998
K562 = system: K562
SR = system: SR
SNB-75 = system: SNB-75
HOP-92 = system: HOP-92

Cc1c(CNc2ccc(Cl)c(Cl)c2Cl)cnc2nc(N)nc(N)c12
GI50 (SW-620): 0.179 µM (active) | GI50 (UO-31): 2.44 µM (inactive) | GI50 (LOX IMVI): 0.064 µM (active) | GI50 (M14): 0.942 µM (active) | GI50 (SK-MEL-2): 27.1 µM (inactive) | GI50 (Hs-578T): 17.8 µM (inactive) | GI50 (KM12): 4.99 µM (inactive) | GI50 (HCT-116): 0.0208 µM (active) | GI50 (SF-539): 0.483 µM (active) | GI50 (Malme-3M): 3.12 µM (inactive) | GI50 (HOP-62): 1.04 µM (active) | GI50 (U-251): 0.172 µM (active) | GI50 (SF-268): 0.404 µM (active) | GI50 (SK-MEL-28): 5.33 µM (inactive) | GI50 (CCRF-CEM): 0.125 µM (active) | GI50 (MDA-N): 0.0515 µM (active) | GI50 (CAKI-1): > 100 µM (inactive) | GI50 (RXF 393): 11.9 µM (inactive) | GI50 (TK-10): 14.1 µM (inactive) | GI50 (SN12C): 1.36 µM (inactive) | GI50 (IGROV-1): 0.499 µM (active) | GI50 (PC-3): 2.58 µM (inactive) | GI50 (OVCAR-8): 0.053 µM (active) | GI50 (786-0): 0.0918 µM (active) | GI50 (A498): > 100 µM (inactive) | GI50 (OVCAR-4): 14.5 µM (inactive) | GI50 (DU-145): 0.294 µM (active) | GI50 (SK-OV-3): > 35.6 µM (inactive) | GI50 (OVCAR-3): 13.6 µM (inactive) | GI50 (MDA-MB-435): 0.107 µM (active) | GI50 (UACC-257): 0.236 µM (active) | GI50 (NCI-H23): 0.255 µM (active) | GI50 (HL-60): 0.607 µM (active) | GI50 (NCI-H522): 4.46 µM (inactive) | GI50 (HCT-15): 0.184 µM | GI50 (OVCAR-5): 11 µM (inactive) | GI50 (MDA-MB-231): 0.891 µM (active) | GI50 (MOLT-4): 0.164 µM (active) | GI50 (A549): 0.0352 µM (active) | GI50 (SK-MEL-5): 0.263 µM (active) | GI50 (EKVX): 4.2 µM (inactive) | GI50 (COLO 205): 5.35 µM (inactive) | GI50 (BT-549): 24.9 µM (inactive) | GI50 (RPMI-8226): 2.08 µM (inactive) | GI50 (SF-295): 0.065 µM (active) | GI50 (UACC-62): 0.0771 µM (active) | GI50 (HT-29): 0.162 µM (active) | GI50 (ACHN): 0.3 µM (active) | GI50 (SNB-19): 14.6 µM (inactive) | GI50 (NCI-H226): 19.5 µM (inactive) | GI50 (MCF7): 0.792 µM (active) | GI50 (NCI/ADR-RES): > 100 µM (inactive) | GI50 (T47D): 4.24 µM (inactive) | GI50 (NCI-H460): 0.0615 µM (active) | GI50 (HCC 2998): 3.17 µM (inactive) | GI50 (K562): < 0.0132 µM (active) | GI50 (SR): 0.357 µM (active) | GI50 (SNB-75): 10.4 µM (inactive) | GI50 (HOP-92): 5.85 µM (inactive)

CCOC(=O)CCC(NC(=O)C(Cc1ccccc1)NC(=O)OCc1ccccc1)C(=O)OCC (stereo not drawn) (Cbz-Phe-Glu(OEt)-OEt; configuration not given here)
GI50 (SW-620): 18.2 µM (inactive) | GI50 (UO-31): 17.4 µM (inactive) | GI50 (LOX IMVI): 14.7 µM (inactive) | GI50 (M14): 15.9 µM (inactive) | GI50 (SK-MEL-2): 22.3 µM (inactive) | GI50 (Hs-578T): 14.8 µM (inactive) | GI50 (KM12): 17 µM (inactive) | GI50 (HCT-116): 18 µM (inactive) | GI50 (SF-539): 20.3 µM (inactive) | GI50 (Malme-3M): 17.4 µM (inactive) | GI50 (HOP-62): 18.5 µM (inactive) | GI50 (U-251): 14.9 µM (inactive) | GI50 (SF-268): 16.2 µM (inactive) | GI50 (SK-MEL-28): 17.9 µM (inactive) | GI50 (CCRF-CEM): 31.3 µM (inactive) | GI50 (MDA-N): 17.2 µM (inactive) | GI50 (CAKI-1): 16.7 µM (inactive) | GI50 (RXF 393): 17.9 µM (inactive) | GI50 (TK-10): 19.4 µM (inactive) | GI50 (SN12C): 20.7 µM (inactive) | GI50 (IGROV-1): 18.1 µM (inactive) | GI50 (PC-3): 18.2 µM (inactive) | GI50 (OVCAR-8): 19.5 µM (inactive) | GI50 (786-0): 18.1 µM (inactive) | GI50 (A498): 21.2 µM (inactive) | GI50 (OVCAR-4): 17.7 µM (inactive) | GI50 (DU-145): 6.58 µM (inactive) | GI50 (SK-OV-3): 16.6 µM (inactive) | GI50 (OVCAR-3): 15.3 µM (inactive) | GI50 (MDA-MB-435): 18.3 µM (inactive) | GI50 (UACC-257): 16.9 µM (inactive) | GI50 (NCI-H23): 17 µM (inactive) | GI50 (HL-60): 20.1 µM (inactive) | GI50 (NCI-H522): 15.7 µM (inactive) | GI50 (HCT-15): 20.1 µM | GI50 (OVCAR-5): 16.7 µM (inactive) | GI50 (MDA-MB-231): 14.9 µM (inactive) | GI50 (MOLT-4): 30.2 µM (inactive) | GI50 (A549): 18.8 µM (inactive) | GI50 (SK-MEL-5): 15.5 µM (inactive) | GI50 (EKVX): 20.4 µM (inactive) | GI50 (COLO 205): 19.4 µM (inactive) | GI50 (BT-549): > 100 µM (inactive) | GI50 (RPMI-8226): 35 µM (inactive) | GI50 (SF-295): 19.8 µM (inactive) | GI50 (UACC-62): 17.9 µM (inactive) | GI50 (HT-29): 20.2 µM (inactive) | GI50 (ACHN): 17.4 µM (inactive) | GI50 (SNB-19): 19.7 µM (inactive) | GI50 (NCI-H226): 16.6 µM (inactive) | GI50 (MCF7): 19.2 µM (inactive) | GI50 (NCI/ADR-RES): 18.2 µM (inactive) | GI50 (T47D): 16.2 µM (inactive) | GI50 (NCI-H460): 20.5 µM (inactive) | GI50 (HCC 2998): 17.7 µM (inactive) | GI50 (K562): 37.4 µM (inactive) | GI50 (SR): 27 µM (inactive) | GI50 (SNB-75): 18.7 µM (inactive) | GI50 (HOP-92): 18.5 µM (inactive)

C[C@H]1C2Cc3cc(O)ccc3[C@@]1(C)CCN2CCc1ccc(N)cc1
GI50 (SW-620): 15.3 µM (inactive) | GI50 (UO-31): 37.2 µM (inactive) | GI50 (LOX IMVI): 14.1 µM (inactive) | GI50 (M14): 18.4 µM (inactive) | GI50 (SK-MEL-2): 41.9 µM (inactive) | GI50 (Hs-578T): > 100 µM (inactive) | GI50 (KM12): 16.7 µM (inactive) | GI50 (HCT-116): 15.9 µM (inactive) | GI50 (SF-539): 16.7 µM (inactive) | GI50 (Malme-3M): 18.8 µM (inactive) | GI50 (HOP-62): 8.69 µM (inactive) | GI50 (U-251): 17.6 µM (inactive) | GI50 (SF-268): 19.6 µM (inactive) | GI50 (SK-MEL-28): 18.6 µM (inactive) | GI50 (CCRF-CEM): 18.5 µM (inactive) | GI50 (MDA-N): 20.7 µM (inactive) | GI50 (CAKI-1): > 100 µM (inactive) | GI50 (RXF 393): 52.7 µM (inactive) | GI50 (TK-10): > 100 µM (inactive) | GI50 (SN12C): 98.9 µM (inactive) | GI50 (IGROV-1): 13.6 µM (inactive) | GI50 (PC-3): 18.8 µM (inactive) | GI50 (OVCAR-8): 7.98 µM (inactive) | GI50 (786-0): 15.8 µM (inactive) | GI50 (A498): > 100 µM (inactive) | GI50 (OVCAR-4): 55.6 µM (inactive) | GI50 (DU-145): > 100 µM (inactive) | GI50 (SK-OV-3): > 100 µM (inactive) | GI50 (OVCAR-3): 14.2 µM (inactive) | GI50 (MDA-MB-435): 17.1 µM (inactive) | GI50 (UACC-257): 18.6 µM (inactive) | GI50 (NCI-H23): > 100 µM (inactive) | GI50 (HL-60): 38.3 µM (inactive) | GI50 (NCI-H522): 19.7 µM (inactive) | GI50 (HCT-15): 18.2 µM | GI50 (OVCAR-5): > 100 µM (inactive) | GI50 (MDA-MB-231): 34.9 µM (inactive) | GI50 (MOLT-4): 23.7 µM (inactive) | GI50 (A549): 28.6 µM (inactive) | GI50 (SK-MEL-5): 14.4 µM (inactive) | GI50 (EKVX): > 100 µM (inactive) | GI50 (COLO 205): 28.6 µM (inactive) | GI50 (BT-549): > 100 µM (inactive) | GI50 (RPMI-8226): 28.4 µM (inactive) | GI50 (SF-295): 18.6 µM (inactive) | GI50 (UACC-62): > 100 µM (inactive) | GI50 (HT-29): 15.5 µM (inactive) | GI50 (ACHN): 58.1 µM (inactive) | GI50 (SNB-19): 81.7 µM (inactive) | GI50 (NCI-H226): > 100 µM (inactive) | GI50 (MCF7): 15.2 µM (inactive) | GI50 (NCI/ADR-RES): 25.7 µM (inactive) | GI50 (T47D): 80.5 µM (inactive) | GI50 (NCI-H460): 30.3 µM (inactive) | GI50 (HCC 2998): 13.6 µM (inactive) | GI50 (K562): 22.3 µM (inactive) | GI50 (SR): 21.6 µM (inactive) | GI50 (SNB-75): > 100 µM (inactive) | GI50 (HOP-92): 1.71 µM (inactive)

From ChEMBL document CHEMBL1201862, “PubChem BioAssay data set” (2004)
